Results published in article PMC10739630, “Galidesivir Triphosphate Promotes Stalling of Dengue-2 Virus Polymerase Immediately Prior to Incorporation” (ACS Infectious Diseases, 2023).

Assays:
Format in all cases: biochemical
DENV2 NS5 [1] = target: T1, DENV2 NS5 (Dengue virus 2 Thailand/16681/84, UniProt P29990); assay: SYTO […] fluorescence RdRp assay, A2-primed, poly(U) template; details: read-out: IC50 ^a (μM, mean ± std. dev.)
ZIKV NS5 = ZIKV NS5 (Zika virus, UniProt Q32ZE1); assay: as above; details: read-out: IC50 ^a (μM, mean ± std. dev.)
DENV2 NS5 [2] = target: T1, DENV2 NS5; details: read-out: KM^app for ATP

T1 sequence (P29990 2492-3391 limits assumed): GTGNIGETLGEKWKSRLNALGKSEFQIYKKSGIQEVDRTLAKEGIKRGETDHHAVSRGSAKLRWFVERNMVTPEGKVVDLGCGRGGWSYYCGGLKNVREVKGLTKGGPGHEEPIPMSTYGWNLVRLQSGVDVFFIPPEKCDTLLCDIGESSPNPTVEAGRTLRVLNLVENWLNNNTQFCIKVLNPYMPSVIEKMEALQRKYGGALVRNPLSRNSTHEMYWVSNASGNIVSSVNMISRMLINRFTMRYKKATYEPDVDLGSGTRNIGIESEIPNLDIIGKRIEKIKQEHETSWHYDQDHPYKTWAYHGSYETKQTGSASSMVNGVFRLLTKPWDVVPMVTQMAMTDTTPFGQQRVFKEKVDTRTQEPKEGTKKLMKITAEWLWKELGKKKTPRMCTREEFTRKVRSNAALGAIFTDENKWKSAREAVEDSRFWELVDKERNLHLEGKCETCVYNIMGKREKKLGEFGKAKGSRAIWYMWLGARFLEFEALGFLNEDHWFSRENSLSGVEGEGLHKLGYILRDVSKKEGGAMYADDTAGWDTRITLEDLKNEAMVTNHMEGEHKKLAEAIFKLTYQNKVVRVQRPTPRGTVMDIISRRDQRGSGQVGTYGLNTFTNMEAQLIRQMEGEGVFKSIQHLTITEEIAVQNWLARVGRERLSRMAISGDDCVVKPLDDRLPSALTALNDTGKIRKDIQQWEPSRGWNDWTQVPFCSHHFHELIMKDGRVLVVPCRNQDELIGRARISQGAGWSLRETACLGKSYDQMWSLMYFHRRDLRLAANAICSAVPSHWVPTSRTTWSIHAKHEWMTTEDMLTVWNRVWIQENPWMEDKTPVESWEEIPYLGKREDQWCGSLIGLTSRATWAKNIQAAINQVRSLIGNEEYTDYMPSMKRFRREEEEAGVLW
Sequence of ZIKV NS5 (Q32ZE1 2517-3419): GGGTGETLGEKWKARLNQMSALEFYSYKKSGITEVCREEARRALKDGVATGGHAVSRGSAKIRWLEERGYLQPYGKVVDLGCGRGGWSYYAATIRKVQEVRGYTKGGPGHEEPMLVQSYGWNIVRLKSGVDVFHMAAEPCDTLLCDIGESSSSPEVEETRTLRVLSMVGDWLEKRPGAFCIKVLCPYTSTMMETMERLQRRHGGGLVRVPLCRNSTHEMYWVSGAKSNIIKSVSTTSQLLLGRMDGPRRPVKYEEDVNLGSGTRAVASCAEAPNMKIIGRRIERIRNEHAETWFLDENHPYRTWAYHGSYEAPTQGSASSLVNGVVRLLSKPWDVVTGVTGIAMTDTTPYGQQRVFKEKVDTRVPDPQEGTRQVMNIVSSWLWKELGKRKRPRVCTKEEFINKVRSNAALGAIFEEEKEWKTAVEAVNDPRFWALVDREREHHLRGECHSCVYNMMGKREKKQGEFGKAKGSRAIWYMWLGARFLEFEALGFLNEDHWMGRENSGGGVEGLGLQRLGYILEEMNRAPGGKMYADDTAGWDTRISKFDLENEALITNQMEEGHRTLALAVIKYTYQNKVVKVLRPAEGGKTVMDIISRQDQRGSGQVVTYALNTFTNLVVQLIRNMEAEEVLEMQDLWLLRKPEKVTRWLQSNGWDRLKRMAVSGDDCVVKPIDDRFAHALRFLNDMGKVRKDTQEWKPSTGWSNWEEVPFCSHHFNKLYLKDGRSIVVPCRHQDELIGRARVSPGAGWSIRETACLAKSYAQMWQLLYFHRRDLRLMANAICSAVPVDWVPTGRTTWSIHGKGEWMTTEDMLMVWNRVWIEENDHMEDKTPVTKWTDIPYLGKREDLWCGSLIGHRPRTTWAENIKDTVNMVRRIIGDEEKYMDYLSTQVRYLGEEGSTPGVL

Nc1ncnc2c1ncn2[C@@H]1O[C@H](COP(=O)(O)OP(=O)(O)OP(=O)(O)O)C[C@H]1O [3′-dATP, reference compound]
IC50 (DENV2 NS5 [1]): 0.48 ± 0.05 µM
IC50 (ZIKV NS5): 0.06 ± 0.02 µM

Nc1ncnc2c1ncn2[C@@H]1O[C@H](COP(=O)(O)OP(=O)(O)OP(=O)(O)O)[C@@H](O)[C@H]1O [ATP]
Km (DENV2 NS5 [2]): 430 µM

Nc1ncnc2c([C@@H]3N[C@H](COP(=O)(O)OP(=O)(O)OP(=O)(O)O)[C@@H](O)[C@H]3O)c[nH]c12 [Gal-TP]
IC50 (DENV2 NS5 [1]): 42 ± 12 µM
IC50 (ZIKV NS5): 47 ± 5 µM
